Measurements reported in publication PMC7249060, “The Antiproliferative Effects of Flavonoid MAO Inhibitors on Prostate Cancer Cells” (Molecules, 2020).

Key:
LNCaP cells = experiment: Antiproliferation dose-response assay for 72 h; format: cell-based; conditions: Homo sapiens, mean ± SEM of two experiments, read-out: antiproliferative IC50
Procedure: For the top effective KKRs, along with TAX, their potency to reduce the affected PCa cell line growth in a dose-dependent manner was determined using the resazurin fluorescence assay. We followed the same protocols and materials used for the antiproliferation screen assays (Section 4.3.2), with the following modifications. The maximum final KKR concentration used was 40 μM. The concentration of 8X of each KKR working solution in 1% HEPES 7.4 was serially diluted in a 3:1 ratio, compound to buffer, respectively. Each data set was collected from ten data points of 3.7–40 μM range. The control had the KKR substituted with buffer. The related IC50 averages were analyzed for the compounds that affected the cell lines the most.

hMAO-A = target: T1, hMAO-A (Homo sapiens, UniProt P21397); experiment: MAO-Glow luminescence screen of KKRs at 100 μM; format: biochemical; conditions: from screen at 100 μM, 37 °C, 60 min, LDS 40 μM
T1 construct: purchased Sigma-Aldrich Co. (St. Louis, MO, USA)
T1 sequence (P21397 1-527): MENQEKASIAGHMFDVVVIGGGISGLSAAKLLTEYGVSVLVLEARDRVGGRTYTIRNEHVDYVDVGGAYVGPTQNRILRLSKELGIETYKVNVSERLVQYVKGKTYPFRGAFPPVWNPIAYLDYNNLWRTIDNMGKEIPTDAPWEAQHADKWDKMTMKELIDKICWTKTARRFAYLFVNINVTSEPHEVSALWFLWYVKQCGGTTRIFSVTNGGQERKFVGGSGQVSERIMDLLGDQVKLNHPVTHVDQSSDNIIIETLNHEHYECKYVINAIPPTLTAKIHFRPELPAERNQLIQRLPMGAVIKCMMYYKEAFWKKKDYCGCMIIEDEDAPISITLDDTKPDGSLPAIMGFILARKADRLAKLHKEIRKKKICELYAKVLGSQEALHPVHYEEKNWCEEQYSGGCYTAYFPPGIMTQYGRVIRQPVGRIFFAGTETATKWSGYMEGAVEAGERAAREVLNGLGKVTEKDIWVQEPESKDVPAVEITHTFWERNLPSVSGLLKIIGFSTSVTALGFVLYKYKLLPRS
Procedure: We optimized our control hMAO-A and hMAO-B isozymes reactions in the incubation condition, at 37 °C for 1 h, by performing a luminescence assay using the MAO-Glow™ kit. Upon arrival, each isozyme was diluted with 10 mM HEPES in cold HBSS of pH 7.4. Afterward, the diluted isozymes were kept at −80 °C until use. Enzyme concentration optimization was accomplished by testing ten 2X serially diluted hMAO-A and hMAO-B concentrations for a final range of 7.00–0.01 U/mL each. The tested isozymes were incubated with LDS of 40 and 4 μM for isozymes A and B, respectively (recommended by Promega protocol), and a maximum of used DMSO of 1% final concentration. Different isozyme concentrations reactions at their initial velocities were monitored. Consequently, their required concentrations were defined to be 0.44 U/mL each. Additionally, ten different LDS concentrations, ranging from 0.3–150 μM, were monitored for optimizing and validating the linearity of the initial reaction for the hMAO-A mode of action. Subsequently, we chose a saturated substrate of 75 μM as a required concentration for the hMAO-A enzyme kinetic reactions.
The inhibitory effects of the synthesized KKRs of hMAO-A and B were tested by measuring the decrease in arbitrary light units (ALU) signal produced by the optimized isozymes using the MAO-Glow™ Assay at 37 °C. In this assay, DMSO stock for each KKR compound was diluted with a reaction buffer of pH 7.4 to make a 4X working solution for a maximum final concentration of 100 μM and ≤1% DMSO. The experiments were run in the absence and presence of 4X the miscellaneous standards of MAO-BIs (DEP, PARG, and SAF) and MAO-AIs (PIRL and CLORG), with similar concentrations. In white opaque 96-well microplates, 12.5 μL of each compound was plated at RT and was followed by 25 μL of 2X cold hMAO-A or hMAO-B, for a final concentration of 0.44 U/mL. A related buffer substituted each isozyme to make the blank wells and substituted each compound to make the negative control wells. Following this, we added 12.5 μL of 4X LDS to make a final substrate concentration of 40- and 4-μM for hMAO-A and hMAO-B, respectively. All screen plates were incubated at 37 °C for 60 min. The plates of 50 μL/well were then taken out from the incubator, and their reactions were stopped by an equal volume of 50 μL of reporter luciferin detection reagent (RLDR). After 30 min, the luminescence signals for all plates were read on a Synergy HTX Multi-reader from Bio-Tek (Winooski, VT, USA).

DU145 cells = experiment: Scratch migration assay; format: cell-based, human; conditions: preliminary data
Procedure: For in-vitro migration experiments, the PCa metastatic DU145 cell line was used. Cell proliferation and cytotoxicity were monitored for assay validation. The cells (passage # ≤ 10) were grown in fresh media of EMEM 10% FBS, 1% P/S. The cells were seeded in flat-bottom transparent 96-well microplates (100,000 cells/100 μL/well) in EMEM 5% FBS, 1% P/S experimental media. The next day, the confluent cells monolayer was artificially injured by scratching a line across each well, using a 200 μL tip. Immediately, the old media with the detached cells were replaced with 175 μL fresh warm experimental media. Intact cells were then treated with 25 μL of HBSS buffer 7.4 containing tested KKR. In addition to the negative control, KKR11 was tested at gradual concentrations to make finals of 40, 30, 23, 17, and 13 μM. The cells were then incubated for an additional 72 h for gap closure of the control wells.
At the gap closure time point, all cells were subjected to the crystal violet assay that only stains viable cells. Briefly, all media were carefully aspired from cells that were then washed with Ca- and Mg-free PBS. The cells were then fixed with 100 μL 0.25% v/v glutaraldehyde, at 37 °C for 20–30 min incubation time, and dried overnight. The next day, all viable attached cells were stained with a 100 μL crystal violet solution (0.1% in DI-water) for up to 30 min. The solution was then discarded, and the stained cells were kept dry for imaging. Images of the scratched areas were photographed using 10X phase contrast objective lenses of Motic-MXH-100-AE31E-Elite Inverted Microscope.

| Structure (SMILES) | IC50 (LNCaP cells) [µM] | IC90 (hMAO-A) [µM] | effect on cell migration (DU145 cells) |
| --- | --- | --- | --- |
| COc1cc(OC)c2c(=O)c(O)c(/C=C/c3cc(OC)c(OC)c(OC)c3)oc2c1 [KKR2A, (E)-3-hydroxy-5,7-dimethoxy-2-(3,4,5-trimethoxystyryl)-4H-chromen-4-one] | > 40 | < 100 | – |
| O=C(/C=C/c1ccccc1)c1cc(Cl)cc(Cl)c1O [KKR20, (E)-1-(3,5-dichloro-2-hydroxyphenyl)-3-phenylprop-2-en-1-one] | 9.2 | < 100 | no significant effects against cell migration |
| O=c1cc(-c2ccccc2)oc2cc(Cl)c(Cl)cc12 [KKR21, 6,7-dichloro-2-phenyl-4H-chromen-4-one] | > 40 | < 100 | – |
| O=c1c(O)c(-c2ccccc2)oc2c(Cl)cc(Cl)cc12 [KKR7, 6,8-dichloro-3-hydroxy-2-phenyl-4H-chromen-4-one] | 9.1 | < 100 | no significant effects against cell migration |
| COc1cc(O)c(C(=O)/C=C/c2ccc(Cl)c(Cl)c2)c(OC)c1 [KKR11, (E)-3-(3,4-dichlorophenyl)-1-(2-hydroxy-4,6-dimethoxyphenyl)prop-2-en-1-one] | 9.5 | < 100 | delayed cell migration |
